Measurements as given in PMC12974487, “Inhibition of FicD-mediated AMPylation and deAMPylation by isoprenoid diphosphates” (Proceedings of the National Academy of Sciences of the …, 2026).
“Also recorded” adds a separate entry of the source.

Target: T1, VopS (Vibrio parahaemolyticus serotype O3:K6, UniProt Q87P32)
T1 construct: made in house
Experiment: In vitro AMPylation of GST-CDC42 by VopS
Assay type: biochemical
Description: Finally, we explored the inhibitory effects of GPP/FPP on other Fido proteins to see if these metabolites could serve as generic inhibitors of Fido domains. To test this specificity, we performed in vitro activity assays with GPP/FPP and two constitutively active Fido proteins from bacteria: VopS from Vibrio parahaemolyticus ([25]) and AvrB from Pseudomonas syringae ([30]). […]
visualization. Min-max scaled RFU values and the first derivatives are plotted as a function of temperature in Graphpad Prism 10.6.1. In Prism, the first derivative values are uniformly nudged by -1 to facilitate presenting RFU values and their first derivatives on the same graph.
To generate dose-response curves, ΔTm, was first calculated by subtracting the Tm of the ’no ligand’ control from the Tm of relevant ligand-containing reactions. ΔTm was then plotted as a function of ligand concentration. Dose-response curves were fit using GraphPad Prism 10.6.1 with the [Agonist] vs. Response – Variable Slope (four parameters) model. […]
Dialyzed proteins were then spun down at 21,000G for 15 minutes at 4C to remove trace insoluble material. The protein concentration was measured spectrophotometrically and then diluted to working concentration with 25mM HEPES pH 7.4/100mM KCl/10% glycerol. […] Integrated data was globally analyzed in SEDPHAT 15.b (12) using a model considering a single class of binding sites. […]

T1 sequence (Q87P32 31-387): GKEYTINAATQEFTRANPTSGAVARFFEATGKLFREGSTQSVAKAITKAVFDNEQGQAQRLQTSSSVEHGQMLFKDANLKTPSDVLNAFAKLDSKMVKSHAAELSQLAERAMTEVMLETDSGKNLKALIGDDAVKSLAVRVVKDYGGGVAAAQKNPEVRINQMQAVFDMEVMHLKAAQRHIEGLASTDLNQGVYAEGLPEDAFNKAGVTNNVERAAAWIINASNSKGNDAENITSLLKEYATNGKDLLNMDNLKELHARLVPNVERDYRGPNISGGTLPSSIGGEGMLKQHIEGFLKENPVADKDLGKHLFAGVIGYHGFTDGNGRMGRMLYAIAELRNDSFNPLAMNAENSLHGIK

Row | Structure (SMILES) | effect on AMPylation activity of VopS
1 | CC(C)=CCC/C(C)=C/COP(=O)(O)OP(=O)(O)O [GPP, geranyl-pyrophosphate] | Neither GPP nor FPP affected
2 | CC(C)=CCC/C(C)=C/CC/C(C)=C/COP(=O)(O)OP(=O)(O)O [FPP, farnesyl-pyrophosphate] | Neither GPP nor FPP affected; also recorded: not inhibited
